Patent US20040223918A1, “Aerosolization of cromolyn sodium using a capillary aerosol generator” (Chrysalis Technologies Incorporated, priority 2003, published 2004)

Assays:
[1] = cited from earlier work
[2] = Solubility of cromolyn sodium in ethanol and PG/EtOH mixtures; format: physicochemical; settings: Table 4 PG/EtOH mixtures, 0.25% Brij30 and 0.25% lecithin
Source text: FIG. 7 is a graph illustrating the solubility of cromolyn sodium in various propylene glycol/ethanol (PG/EtOH) mixtures, with 0.25% Brij30 and 0.25% lecithin. […] When formulated with 0.25% w/v Brij 30 and 0.25% lecithin, cromolyn sodium suspension formulations remained visually stable over a period of one to two weeks. There was no significant change in the particle size distribution of the suspended particles up to three days of standing at ambient condition. The addition of PG was primarily to prevent capillary clogging. The amount of PG required in the formulation was dependent on the API concentration.

- solubility in PG/EtOH mixtures [2]: almost insoluble
SMILES: O=C(O)c1cc(=O)c2c(OCC(O)COc3cccc4oc(C(=O)O)cc(=O)c34)cccc2o1 [cromolyn sodium]
- solubility in ethanol [1]: virtually insoluble
